Results reported in patent US12653805B2, “Targeting LASP1, eIF4A1, eIF4B and CXC4 with modulators and combinations thereof for cancer therapy” (The University of Toledo, priority 2019, dated 2026).

What was measured:
[1] = tested on: MCF7 breast cancer cells; details: RNA-Seq data, p 4.3E−10, adjusted p 8.5E−7; cited from earlier work
[2] = target: T1, eIF4A1 (Homo sapiens, UniProt P60842); assay type: cell-based
T1 construct: A GQ-5′-UTR dual reporter was created in breast cancer cell lines; endogenous in cells
T1 sequence (P60842 whole entry): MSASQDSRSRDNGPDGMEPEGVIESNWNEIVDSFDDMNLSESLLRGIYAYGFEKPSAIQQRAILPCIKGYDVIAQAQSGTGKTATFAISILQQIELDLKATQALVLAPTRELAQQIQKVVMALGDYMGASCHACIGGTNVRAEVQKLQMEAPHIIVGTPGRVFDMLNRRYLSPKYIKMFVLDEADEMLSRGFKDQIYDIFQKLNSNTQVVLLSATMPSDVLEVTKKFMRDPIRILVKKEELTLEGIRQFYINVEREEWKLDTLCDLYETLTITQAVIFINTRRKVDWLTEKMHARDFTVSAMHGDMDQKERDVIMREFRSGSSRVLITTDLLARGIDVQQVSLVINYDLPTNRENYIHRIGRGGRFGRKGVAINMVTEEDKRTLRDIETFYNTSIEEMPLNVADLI
Source text: A GQ-5′-UTR dual reporter was created in breast cancer cell lines which would report either a reduction in td-Tomato fluorescence or luciferase activity if eIF4A1 is inhibited by any of the compounds in the Prestwick library (FIGS. 26A-26B).

[3] = tested on: triple-negative MDA-MB-231 cells; test: Immunoblotting after digoxin in MDA-MB-231 cells; assay type: cell-based, human
[4] = tested on: triple-negative SUM-159-PT cells; test: Immunoblotting after digoxin in SUM-159-PT cells; assay type: cell-based, human; details: 30 nM digoxin (low dose)
[5] = tested on: BCSCs derived from MDA-Bone-Un cells; test: DRAQ7 cell death assay in BCSCs from MDA-Bone-Un; assay type: cell-based, human; details: 30 nM RocA, 7 days
Protocol: (§1) The induction of cell death by the small molecule inhibitor rocaglamide A (RocA) (Sigma/Aldrich, St. Louis, Mo., Cat. #—SML0656) was followed by employing Deep Red Anthraquinone 7 (DRAQ7) dye (Abcam, Cat. #—ab109202). DRAQ7 is a cell impermeable, far-red fluorescent DNA dye that stains the nuclei of dead and plasma membrane-compromised cells. […] For the cell death analysis, ALDH+ BCSCs were treated with the indicated drug dosage for 7 days. On day 7, DRAQ7 was added to the cells (1:2,000 dilution) and incubated overnight. Dead BCSCs were tracked by DRAQ7 fluorescence by employing the EVOS cell imaging system (ThermoFisher Scientific, Rockford, Ill.).

[6] = tested on: BCSCs derived from SUM-159PT cells; test: Mammosphere formation efficiency (MFE) assay, BCSCs from SUM-159PT; assay type: cell-based, human
Protocol: (§2) The evaluation of MFE was performed as described previously. Briefly, 1×10^3 ALDH+ BCSCs of MDA-Bone-Un or SUM-159PT origins were seeded onto 96-well ultra-low attachment plates. They were maintained in DMEM/F12 media supplemented with […] bFGF, […] hEGF, 2% B27 mixture, and 1% penicillin/streptomycin for 7 days. The mammosphere images were obtained longitudinally by employing IncuCyte® S3 Live-Cell Analysis System (Essen BioScience, Ann Arbor, Mich.). On day 7, MFE was calculated by employing the formula: (number of mammospheres formed/total number of cells seeded)×100. A diameter of 100 μm was used as a cut-off in the determination of the mammosphere forming ability. For the assessment of secondary MFE, the BCSCs from primary MFE were collected, centrifuged, and re-seeded onto 96-well plates coated with poly 2-hydroxyethyl methacrylate (poly-HEMA). The cells were monitored, and the mammospheres were counted using IncuCyte.

[7] = tested on: 231S LASP1 NS and KD cells; test: Pharmacological inhibition of eIF4A in 231S LASP1 NS and KD cells; assay type: cell-based, human
Protocol: 231S LASP1 NS/KD cells were plated into 96-well dishes (3,000 cells/well) and incubated with various amounts of rocaglamide A (RocA) (Sigma/Aldrich, St. Louis, Mo., Cat. No. SML0656) in low serum media (LSM-DMEM/0.5% FBS). Images were acquired via an IncuCyte R S3 Live-Cell Analysis System (Essen BioScience, Ann Arbor, Mich.). Two images per well were acquired every 2 h. Data was processed on the IncuCyte S3 software (Essen BioScience, Ann Arbor, Mich.). Only cells with an area >150 μm^2 were analyzed to avoid cellular debris. Data is reflective of the percent confluence of each image at 36 h RocA incubation. Percent inhibition was calculated in reference to the DMSO control. The readings from 231S LASP1 NS cells were set to 1. In the cell viability experiments, 231S LASP1 NS/KD cells were seeded at 6,000 cells/well and allowed to attach and spread overnight. The following day, complete media was replaced with LSM and RocA. Cell viability was then determined 36 h later using a cell counting kit-8 (Sigma/Aldrich, St. Louis, Mo., Cat. No 96992) according to the manufacturer's instructions. Data is reflective of the absorbance at 450 nm (A450). The DMSO controls were set to 100%.

[8] = tested on: MDA-Bone-Un eIF4A CC and KO cells; test: Viability of MDA-Bone-Un eIF4A CRISPR control and knockout cells after RocA; assay type: cell-based, human; details: 48 h
Protocol: (§3) Briefly, to assess the cell viability, 3×10^3 cells/well (SUM-159PT, SUM Pac 200 nM, MDA-Bone-Un eIF4A CC and KO) were seeded and the cells were allowed to attach and spread overnight under adherent or non-adherent low attachment conditions.

[9] = tested on: BCSCs derived from MDA-Bone-Un cells; test: Mammosphere formation efficiency (MFE) assay, BCSCs from MDA-Bone-Un; assay type: cell-based, human; details: 10 nM RocA, p<0.0001
Protocol: as §2

[10] = tested on: BCSCs derived from SUM-159PT cells; test: CellTiter-Glo viability assay in BCSCs from SUM-159PT; assay type: cell-based, human; details: 5 nM RocA
Source text: (§4) The cell viability was alternatively determined on day 7 following treatment with RocA by employing the CellTiter-Glo® luminescent cell viability kit (Promega, Cat. #—G7570) as per the manufacturer's instructions. This quantitative assay is a homogeneous method of determining the number of viable cells in culture based on the amount of adenosine triphosphate (ATP) present inside the cells.

[11] = tested on: BCSCs derived from MDA-Bone-Un cells; test: Immunoblotting of RocA-treated BCSCs from MDA-Bone-Un; assay type: cell-based, human
[12] = tested on: BCSCs derived from SUM-159PT cells; test: DRAQ7 cell death assay in BCSCs from SUM-159PT; assay type: cell-based, human; details: 5 nM RocA, day 7
Protocol: as §1

[13] = tested on: BCSCs derived from MDA-Bone-Un cells; test: CellTiter-Glo viability assay in BCSCs from MDA-Bone-Un; assay type: cell-based, human; details: 7 days
Source text: as §4

[14] = tested on: SUM-159PT cells; test: Viability of parental and paclitaxel-resistant SUM-159PT cells after RocA; assay type: cell-based, human; details: therapy naïve and paclitaxel-resistant (Pac 200) cells, 48 h, adherent and non-adherent conditions
Protocol: as §3

[15] = 45 nM RocA, 72 h, pooled replicates

C[C@H]1O[C@@H](O[C@H]2[C@@H](O)C[C@H](O[C@H]3[C@@H](O)C[C@H](O[C@H]4CC[C@@]5(C)[C@H](CC[C@@H]6[C@@H]5C[C@@H](O)[C@]5(C)[C@@H](C7=CC(=O)OC7)CC[C@]65O)C4)O[C@@H]3C)O[C@@H]2C)C[C@H](O)[C@@H]1O [digoxin]
C-Myc mRNA level [1]: decrease
activity of eIF4A1 ([2]; 3 different TNBC cell lines): potently inhibited
Z-score ([2]; Prestwick chemical library screen): below −5
downstream effectors of eIF4A1 activity BIRC5 (survivin) and Rho Kinase 1 (ROCK1) [3]: dose-dependent inhibition
downregulation (reduction) of c-MYC [4]: 60%
downregulation of the levels of eIF4A1 [4]: 50%

COc1ccc([C@@]23Oc4cc(OC)cc(OC)c4[C@]2(O)[C@H](O)[C@H](C(=O)N(C)C)[C@H]3c2ccccc2)cc1 [rocaglamide A]
DRAQ7 staining (dead BCSCs) [5]: intense DRAQ7 staining
reduction in formation of the primary mammospheres ([6]; 10 nM RocA): 50%
decrease in secondary MFE ([6]; RocA, compared with primary MFE): more drastic
cellular viability ([7]; 231S LASP1 KD cells, RocA 36 h, cell counting kit-8): significantly decreased
BIRC5 levels ([7]; 231S LASP1 NS cells, 24 h RocA, 30 to 100 nM): dose-dependent decrease
proliferation ([7]; MDA-MB-231 cells with stable knockdown of LASP1 combined with rocaglamide A): effectively inhibited
viability following RocA challenge ([8]; MDA-Bone-Un eIF4A CC cells): steep decrease in viability
sensitivity of viability to RocA ([8]; MDA-Bone-Un eIF4A KO cells, up to 60 nM RocA): relatively insensitive
reduction of the primary mammospheres [9]: ~50%
secondary MFE [9]: severely impacted
cells dead [10]: More than 50%
reduction in NANOG level ([11]; 15 nM RocA, 48 h): 2 fold
reduction of ABC transporter ABCB1 ([11]; 45 nM RocA, 48 and 72 h, pooled replicates): 10 fold
decrease of SOX2 level ([11]; 45 nM RocA, 24 h, pooled replicates): 10 fold
reduction in NANOG level ([11]; 45 nM RocA, 48 h): 10 fold
reduction of OCT4 ([11]; 45 nM RocA, 48 h (dose experiment)): 3.3 fold
decrease of OCT4 ([11]; 45 nM RocA, 48 h, 3 biological replicates pooled): 2.5 fold
SOX2 level increased back ([11]; 45 nM RocA, 48 h, pooled replicates): 2 fold
SOX2 [11, 15]: degradation of SOX2 was observed
decrease of OCT4 [11, 15]: 10 fold
expression of BIRC5, Cyclin D1, Cyclin D3, and ROCK1 ([11]; 15, 30, and 45 nM RocA, 48 h): dramatic reduction
total protein level of eIF4A ([11]; 15, 30, and 45 nM RocA, 48 h): did not affect
induction of cleaved caspase-3 (increase) ([11]; RocA 15-45 nM, 48 h): up to 17.1 fold
levels of the BCSC markers ALDH1A1 and CD44 ([11]; RocA, 48 h): not affected
SOX2 level ([11]; all concentrations of RocA, 48 h): remained elevated above the basal level
BCSCs intensely stained with DRAQ7 [12]: More than 50%
viability based on ATP level ([13]; 30 nM RocA): nearly all BCSCs were wiped out
IC50 ([13]; cellular ATP, read-out: half maximal inhibitory concentration (IC50)): 15 nM
targeting of cell viability [14]: effective
